Experiments:
wild-type MDCK cells [1] = assay: Branching tubule formation assay in 3-D collagen gel; type: cell-based, dog; conditions: 3-D collagen gel
Protocol: (§1) From the total amount of cysts in the field, the percentage of cysts with long branches was calculated. Only branches with lengths of more than two cyst diameters were counted.
(§2) Trypsinized cells were mixed 1:3 with collagen type I solution and plated. MEM with 10% FCS was overlaid on the gels with or without GDNF (Cephalon Inc. or R&D Systems, Inc.) or 50 ng/ml HGF. Cells in collagen were cultured for 3 days; GDNF-containing medium was changed daily. For quantification, cells were cultured for 3 days, fixed by 3% glutaraldehyde in PBS and counted under a light microscope.
(§3) To avoid the effect of possible contamination of GDNF preparation, recombinant GDNF from two different sources were tested. One tested GDNF was expressed in baculovirus-infected insect cells (Cephalon Inc.), the other was expressed in mouse myeloma cell line NSO (R&D Systems, Inc.).

MET [2] = biological target: MET (Homo sapiens, UniProt P08581); conditions: Villa-Moruzzi et al., 1993; cited from earlier work
Chain of MET (Homo sapiens, UniProt P08581) (P08581 25-1390): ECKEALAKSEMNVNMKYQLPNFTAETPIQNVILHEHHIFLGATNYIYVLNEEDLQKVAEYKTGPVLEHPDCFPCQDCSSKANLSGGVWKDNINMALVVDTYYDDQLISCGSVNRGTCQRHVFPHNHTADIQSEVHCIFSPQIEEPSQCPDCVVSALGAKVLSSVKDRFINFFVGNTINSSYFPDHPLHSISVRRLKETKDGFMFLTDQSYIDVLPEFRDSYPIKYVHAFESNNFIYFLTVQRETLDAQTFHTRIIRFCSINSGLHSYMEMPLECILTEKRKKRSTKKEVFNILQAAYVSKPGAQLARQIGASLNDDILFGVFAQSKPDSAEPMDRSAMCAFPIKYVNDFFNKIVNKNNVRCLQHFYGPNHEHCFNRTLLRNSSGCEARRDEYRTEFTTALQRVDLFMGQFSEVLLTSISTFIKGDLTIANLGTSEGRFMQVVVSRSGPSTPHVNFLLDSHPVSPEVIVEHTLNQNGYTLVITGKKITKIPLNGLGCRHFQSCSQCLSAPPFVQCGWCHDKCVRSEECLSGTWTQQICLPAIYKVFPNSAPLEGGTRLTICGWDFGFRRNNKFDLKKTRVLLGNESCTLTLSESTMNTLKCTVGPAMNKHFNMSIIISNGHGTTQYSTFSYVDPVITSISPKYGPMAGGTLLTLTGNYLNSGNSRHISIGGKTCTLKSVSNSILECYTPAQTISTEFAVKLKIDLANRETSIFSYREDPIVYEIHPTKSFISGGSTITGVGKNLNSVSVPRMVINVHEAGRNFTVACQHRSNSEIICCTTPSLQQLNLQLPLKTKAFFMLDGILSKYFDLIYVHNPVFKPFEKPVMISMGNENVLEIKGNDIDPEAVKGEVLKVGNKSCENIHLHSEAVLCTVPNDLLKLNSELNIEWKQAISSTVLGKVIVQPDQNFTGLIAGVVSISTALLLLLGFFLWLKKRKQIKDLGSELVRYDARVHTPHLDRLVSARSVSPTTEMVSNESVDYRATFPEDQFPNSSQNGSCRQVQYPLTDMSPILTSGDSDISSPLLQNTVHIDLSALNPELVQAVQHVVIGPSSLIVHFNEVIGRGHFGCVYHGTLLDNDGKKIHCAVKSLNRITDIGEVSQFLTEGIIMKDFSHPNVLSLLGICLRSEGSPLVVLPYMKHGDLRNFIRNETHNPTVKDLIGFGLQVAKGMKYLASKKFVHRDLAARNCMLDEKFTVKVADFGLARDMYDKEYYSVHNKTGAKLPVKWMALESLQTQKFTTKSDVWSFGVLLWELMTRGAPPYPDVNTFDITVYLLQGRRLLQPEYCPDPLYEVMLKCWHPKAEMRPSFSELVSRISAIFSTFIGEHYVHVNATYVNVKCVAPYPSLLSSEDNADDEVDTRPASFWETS

MET [3] = assay: MET phosphorylation in MDCK cells (immunoprecipitation, Western blotting); type: cell-based, dog
Protocol: (§4) To detect MET activation, GFRα1- and RET/GFRα1-expressing MDCK or SHEP cells were starved overnight in MEM or RPMI 1640 with 1% FCS, respectively, and in serum-free medium for 2 h prior the induction. After 15 min incubation at 37° C. with GDNF (at indicated concentrations) or with 50 ng/ml HGF, cells were lysed as described. Cleared cell lysates were incubated with anti-MET antibodies (Santa Cruz Biotechnologies, Inc.) overnight at 4° C. Immunoprecipitates were collected with protein A-SEPHAROSE (Amersham Pharmacia Biotech), washed, separated by SDS-PAGE and transferred to HYBOND-ECL membranes. Membranes were immunoblotted with anti-phospho-tyrosine antibodies (Upstate Group Inc.) or anti-MET antibodies.
Alternatively, 30 μg of protein was incubated overnight at 4° C. with 10 μl Immobilized Phospho-Tyrosine Monoclonal Antibodies (Cell Signalling, NEB). Immunocomplexes were washed and analysed as described.
(§5) For all experiments, densitometry and quantifications were performed using TINA 2.0 program (Raytest, Straubenhardt, Germany).
(§6) For the inhibition of MET, and Src activation, SHEP or GFRα1- and RET/GFRα1-expressing MDCK cells were starved as described above. 1 or […] of the inhibitor PP2 (Calbiochem) was added 30 min before induction by GDNF or HGF. DMSO (dimethyl sulfoxide) was added to the positive controls together with GDNF or HGF.

wild-type MDCK cells [4] = conditions: Stoker et al., 1987; cited from earlier work
MET [5] = assay: MET phosphorylation in SHEP neuroblastoma cells; type: cell-based, human; conditions: SHEP cells
Protocol: FIG. 7B: SHEP cells were grown with GDNF (10 ng/ml (lanes 2-4) or 5 pg/ml (lanes 5-7)) or HGF (10 ng/ml (lanes 8-9)) in the presence of PP2 (1 μM (lanes 3 and 6) and 10 μM (lanes 4 and 7)). To exclude a possible cytotoxic effect of the solvent, DMSO was added to the controls. […] The numbers below the lane indicate the fold of induction of MET tyrosine kinase. The results are representative of three independent experiments.
as §4, §5, §6

MET [6] = biological target: T1, MET (Chlorocebus aethiops, UniProt Q2IBA6); assay: 125I-labelled GDNF and HGF binding, chemical crosslinking, anti-MET immunoprecipitation
T1 construct: different combinations of the MET β-subunit (140 kDa), Met-αβ heterodimer (190 kDa) and HGF complexes; endogenous in cells; host or cells: COS7 cells (wild type for 125I-HGF; transfected with pc3-GFRα1/GFP for 125I-GDNF)
T1 sequence (Q2IBA6 25-1381): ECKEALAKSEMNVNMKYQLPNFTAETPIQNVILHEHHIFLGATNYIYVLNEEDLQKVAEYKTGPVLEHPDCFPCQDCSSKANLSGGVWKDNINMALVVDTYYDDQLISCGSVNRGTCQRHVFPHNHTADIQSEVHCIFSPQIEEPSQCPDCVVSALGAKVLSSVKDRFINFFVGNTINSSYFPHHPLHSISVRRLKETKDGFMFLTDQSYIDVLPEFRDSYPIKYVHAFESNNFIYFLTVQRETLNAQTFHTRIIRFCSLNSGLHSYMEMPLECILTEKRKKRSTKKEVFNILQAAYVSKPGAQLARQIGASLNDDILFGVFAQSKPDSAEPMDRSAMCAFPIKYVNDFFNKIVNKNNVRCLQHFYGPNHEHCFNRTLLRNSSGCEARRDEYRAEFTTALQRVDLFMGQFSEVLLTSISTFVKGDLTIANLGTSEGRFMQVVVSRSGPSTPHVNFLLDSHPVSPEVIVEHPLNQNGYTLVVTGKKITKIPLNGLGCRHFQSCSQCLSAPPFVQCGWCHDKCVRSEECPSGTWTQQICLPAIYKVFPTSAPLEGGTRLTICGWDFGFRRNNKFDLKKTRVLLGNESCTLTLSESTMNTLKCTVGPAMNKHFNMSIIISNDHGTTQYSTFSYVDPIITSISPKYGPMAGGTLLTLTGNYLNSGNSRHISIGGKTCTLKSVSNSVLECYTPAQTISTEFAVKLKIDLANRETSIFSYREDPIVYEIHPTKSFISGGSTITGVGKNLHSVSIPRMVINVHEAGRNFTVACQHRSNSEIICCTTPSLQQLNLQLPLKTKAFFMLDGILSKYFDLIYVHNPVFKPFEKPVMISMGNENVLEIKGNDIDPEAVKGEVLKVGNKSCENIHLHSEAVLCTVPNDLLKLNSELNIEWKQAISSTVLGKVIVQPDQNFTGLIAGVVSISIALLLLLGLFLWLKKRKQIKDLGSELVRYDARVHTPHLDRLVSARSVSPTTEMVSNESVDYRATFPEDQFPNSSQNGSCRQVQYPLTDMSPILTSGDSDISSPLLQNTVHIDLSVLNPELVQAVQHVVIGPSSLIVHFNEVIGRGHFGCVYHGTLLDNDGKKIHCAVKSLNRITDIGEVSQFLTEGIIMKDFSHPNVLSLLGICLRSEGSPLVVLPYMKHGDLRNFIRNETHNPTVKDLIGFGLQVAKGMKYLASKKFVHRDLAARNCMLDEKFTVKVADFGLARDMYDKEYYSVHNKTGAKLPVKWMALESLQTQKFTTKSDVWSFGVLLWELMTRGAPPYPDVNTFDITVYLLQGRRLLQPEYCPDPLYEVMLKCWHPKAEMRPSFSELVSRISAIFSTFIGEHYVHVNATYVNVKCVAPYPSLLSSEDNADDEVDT
Protocol: Binding of ^125I-GDNF to COS7 cells transfected with GFRα1, and ^125-HGF to wild-type COS7, followed by cross-linking with EDC together with sulfo-NHS. Inmunoprecipitates with anti-MET antibodies (IP-Met) were analysed by SDS-PAGE under reducing conditions. ^125I-HGF α subunit and proHGF are marked by arrows. ^125I-HGF/MET complexes are denoted by arrow heads. The results are representative of five independent experiments.
GDNF and HGF were enzymatically iodinated with [^125I]NaI (Amersham Pharmacia Biotech) with lactoperoxidase to a specific activity of 100.000 cpm/ng as described (31). COS7 cells were transfected with pc3-GFRα1/GFP two days prior the assay. 2 nM of ^125I-GDNF or 1 nM of ^125I-HGF were allowed to bind to cell monolayers for 1-2 h on ice in binding buffer (DMEM/15 mM HEPES, pH 7.5; 0.2% BSA), washed, and chemically cross-linked for 30 min at room temperature using BS^3 ([Bis(sulfosuccinimidyl)suberate]), DSS ((Disulfosuccinimidyl)suberate), DSP (3,3-Dithio-bis-(sulfosuccinimidyl)propionate) or EDC ((1-Ethyl-3-[3-dimethylaminopropyl]carbodiimide Hydrochloride)) with sulfo-NHS (N-Hydroxysulfosuccinimide) (Pierce). The non-specific binding of GDNF was estimated by the amount of ^125I-GDNF binding to cells in the presence of 300 n M unlabeled GDNF. Cells were washed, lysed and immunoprecipitated with anti-MET antibodies as described. Gels were dried and analyzed by phosphorimaging in a BAS Reader 1800 (Fuji).

[7] = test system: RET/GFRα1-expressing MDCK cells; assay: Branching tubule formation assay in 3-D collagen gel; type: cell-based, dog; conditions: ligand 100 ng/ml; 3-D collagen gel
Protocol: as §1
(§7) FIG. 2C: Dose-dependence of GDNF-induced branching of GFRα1- and RET/GFRα1-expressing MDCK cells. GDNF concentrations are per ml (x-axis). Results are reported as fold of branching cysts count over the non-induced control. Means±standard errors of the mean of five to eight counted fields are shown. The results are representative of five (A and B) and three (C) independent experiments, p<0.001.
as §2, §3

[8] = test system: GFRα1-expressing MDCK cells; assay: as above; type: cell-based, dog; conditions: ligand 100 ng/ml; 3-D collagen gel
Protocol: as §1, §7, §2, §3

[9] = GFRα1- and RET/GFRα1-expressing MDCK cells, data not shown

## HGF: hepatocyte growth factor (Sigma); binds to and activates MET receptor tyrosine kinase
wild-type MDCK cells [1]; HGF 50 ng/ml
  branching tubule formation: only branch on exposure to HGF
MET [2]
  concentration at which MET is saturated: 0.5 nM
MET [3]; mock-transfected MDCK cells
  MET phosphorylation: only HGF phosphorylated MET
wild-type MDCK cells [4]
  chemotaxis: induces chemotaxis

## CC(C)(C)n1nc(-c2ccc(Cl)cc2)c2c(N)ncnc21 [PP2, reference compound]
MET [5]; PP2 1 μM
  effect on GDNF-dependent phosphorylation of MET: strongly reduced
MET [5]
  effect on HGF-induced MET phosphorylation: did not affect
MET [3]; [9]
  effect on GDNF-induced MET activation: inhibited
  effect on HGF-induced MET phosphorylation: but not the HGF-induced MET phosphorylation

## ^125I-HGF: HGF enzymatically iodinated with [125I]NaI with lactoperoxidase [reference compound]
MET [6]; COS7 cells, reducing conditions, positive control
  cross-linked complexes with MET: approximately 200 kDa, 250 kDa and 340 kDa complexes

B1: PSPN: persephin, the ligand for GFRα4, not known to interact with GFRα1 (protein, UniProt O60542 22-156, looked up)
Persephin: WGPDARGVPVADGEFSSEQVAKAGGTWLGTHRPLARLRRALSGPCQLWSLTLSVAELGLGYASEEKVIFRYCAGSCPRGARTQHGLALARLQGQGRAHGGPCCRPTRYTDVAFLDDRHRWQRLPQLSAAACGCGG
wild-type MDCK cells [1]; ligand 100 ng/ml
  branching tubule formation: does not induce branching
[7]
  branching tubule formation: did not evoke branching
[8]
  branching tubule formation: did not evoke branching

B2: ^125I-GDNF: GDNF enzymatically iodinated with [125I]NaI with lactoperoxidase (protein, UniProt P39905 78-211, looked up)
Glial cell line-derived …: SPDKQMAVLPRRERNRQAAAANPENSRGKGRRGQRGKNRGCVLTAIHLNVTDLGLGYETKEELIFRYCSGSCDAAETTYDKILKNLSRNRRLVSDKVGQACCRPIAFDDDLSFLDDNLVYHILRKHSAKRCGCI
modifications: 125I label
notes: GDNF enzymatically iodinated with [125I]NaI with lactoperoxidase
MET [6]; GFRα1-expressing MDCK, SHEP or COS7 cells, and NIH 3T3 cells transiently transfected with GFRα1, EDC with sulfo-NHS, BS3, DSS, DSP
  cross-linked complexes with MET: No high molecular weight complexes were revealed
